Reference: patent US20230159453A1 (COCRYSTAL PHARMA, INC., priority 2020, published 2023)
“And” between values parts separate entries of the source, which are not always exact repeats. Equal values may be shown once.

target: SARS2 protease (Severe acute respiratory syndrome coronavirus 2, UniProt P0DTD1); test: SARS-CoV-2 protease inhibition assay (SARS2 FRET protease assay); type: biochemical; settings: SARS-CoV-2 protease 25 nM, FRET, peptide substrate 1.3 μM, 30 minutes at 30° C., compounds 20 μM to 1.0 nM; read-out: IC50

Going from CS(=O)(=O)N1CCC2(CC1)CC(CC(NC(=O)[C@H](CC1CCCCC1)NC(=O)OC1CCCC1Cc1cccc(Cl)c1)C(=O)C(=O)NC1CC1)C(=O)N2 (stereo partly drawn) [Compound C177, 2-(3-chlorobenzyl)cyclopentyl ((2S)-3-cyclohexyl-1-((4-(cyclopropylamino)-1-(8-(methylsulfonyl)-2-oxo-1,8-diazaspiro[4.5]decan-3-yl)-3,4-dioxobutan-2-yl)amino)-1-oxopropan-2-yl)carbamate] to CC(C)(C)C(=O)N1CCC2(CC1)CC(CC(NC(=O)[C@H](CC1CCCCC1)NC(=O)OCc1cccc(Cl)c1)C(=O)C(=O)NC1CC1)C(=O)N2 (stereo partly drawn) [Compound C188, 3-Chlorobenzyl ((2S)-3-cyclohexyl-1-((4-(cyclopropylamino)-3,4-dioxo-1-(2-oxo-8-pivaloyl-1,8-diazaspiro[4.5]decan-3-yl)butan-2-yl)amino)-1-oxopropan-2-yl)carbamate], the IC50 falls from 4390 nM to 1890 nM (2.3-fold). The second is the more potent here.

Going from CC(C)C[C@H](NC(=O)OC(c1ccc(Cl)cc1)C(C)(C)c1cccc(Cl)c1)C(=O)N[C@H](C=O)C[C@@H]1CCNC1=O (stereo partly shown) [Compound C246] to CC(C)C[C@H](NC(=O)O[C@H](c1cccc(F)c1)C(C)(C)c1cccc(Cl)c1)C(=O)N[C@H](C=O)C[C@@H]1CCNC1=O [Compound C269], the IC50 falls from 520 nM to 70 nM (7.4-fold). The second is the more potent here.

Compared with CC(C)C[C@H](NC(=O)OC(Cc1ccccc1)c1ccccc1)C(=O)N[C@@H](C[C@@H]1CCNC1=O)C(=O)C(=O)N1CCNCC1 (stereo partly shown) [Compound C283], CC(C)C[C@H](NC(=O)OC(Cc1ccccc1)c1ccccc1)C(=O)N[C@@H](C[C@@H]1CCNC1=O)C(O)S(=O)(=O)O (stereo partly drawn) [Compound C53, (2S)-2-((2S)-2-(((1,2-Diphenylethoxy)carbonyl)amino)-4-methylpentanamido)-1-hydroxy-3-((S)-2-oxopyrrolidin-3-yl)propane-1-sulfonate] is lower in IC50: over 20000 nM for the first, 40 nM for the second. The second is the more potent here.

Compared with CC(C)C[C@H](NC(=O)OC(c1ccccc1)C(F)(F)c1cccc(Cl)c1)C(=O)N[C@@H](C[C@@H]1CCNC1=O)C(=O)C(=O)NC1CC1 (stereo partly shown) [Compound C258], CCCC[C@H](NC(=O)OC(c1ccccc1)C(C)(C)c1cccc(Cl)c1)C(=O)N[C@@H](CC1CCNC1=O)C(=O)C(=O)NC1CC1 (stereo partly drawn) [Compound C174, 2-(3-Chlorophenyl)-2-methyl-1-phenylpropyl ((S)-1-(((S)-4-(cyclopropylamino)-3,4-dioxo-1-((S)-2-oxopyrrolidin-3-yl)butan-2-yl)amino)-1-oxohexan-2-yl) carbamate] is 11-fold lower in IC50: 90 nM for the first, 8.2 nM for the second. The second is the more potent here.

Going from CC1(C)CC(CC(C=O)NC(=O)[C@H](CC2CCCCC2)NC(=O)OC(Cc2cccc(Cl)c2)c2ccccc2)C(=O)N1 (stereo partly drawn) [Compound C180, 2-(3-Chlorophenyl)-1-phenylethyl ((2S)-3-cyclohexyl-1-((1-(5,5-dimethyl-2-oxopyrrolidin-3-yl)-3-oxopropan-2-yl)amino)-1-oxopropan-2-yl) carbamate] to CC1(C)CC(CC(NC(=O)[C@H](CC2CCCCC2)NC(=O)OC(Cc2cccc(Cl)c2)c2ccccc2)C(=O)C(N)=O)C(=O)N1 (stereo partly drawn) [Compound C217, 2-(3-Chlorophenyl)-1-phenylethyl ((2S)-1-((4-amino-1-(5,5-dimethyl-2-oxopyrrolidin-3-yl)-3,4-dioxobutan-2-yl)amino)-3-cyclohexyl-1-oxopropan-2-yl) carbamate], the IC50 rises from 56.6 nM to 3990 nM (70-fold).

Going from CC(C)C[C@H](NC(=O)OC(c1ccc(F)cc1)C(C)(C)c1cccc(Cl)c1)C(=O)N[C@@H](C[C@@H]1CCNC1=O)C(=O)C(=O)NC1CC1 (stereo partly shown) [Compound C247] to CC(C)C[C@H](NC(=O)OCC(C)(C)c1cccc(Cl)c1)C(=O)N[C@@H](C[C@@H]1CCNC1=O)C(=O)C(=O)NC1CC1 [Compound C87, 2-(3-Chlorophenyl)-2-methylpropyl ((S)-1-(((S)-4-(cyclopropylamino)-3,4-dioxo-1-((S)-2-oxopyrrolidin-3-yl)butan-2-yl)amino)-4-methyl-1-oxopentan-2-yl)carbamate], the IC50 rises from 80 nM to 700 nM (8.8-fold). The first is the more potent here.

Going from COc1cccc2[nH]c(C(=O)N[C@@H](CC3CCCCC3)C(=O)NC(C=O)CC3CC4(CCOCC4)NC3=O)cc12 (stereo partly drawn) [Compound C179, N-((2S)-3-cyclohexyl-1-oxo-1-((1-oxo-3-(2-oxo-8-oxa-1-azaspiro[4.5]decan-3-yl)propan-2-yl)amino)propan-2-yl)-4-methoxy-1H-indole-2-carboxamide] to CC(=O)N1CCC2(CC1)CC(CC(NC(=O)[C@H](CC1CCCCC1)NC(=O)c1cc3cc(Cl)ccc3[nH]1)C(=O)C(N)=O)C(=O)N2 (stereo partly drawn) [Compound C126, N-((2S)-1-((1-(8-acetyl-2-oxo-1,8-diazaspiro[4.5]decan-3-yl)-4-amino-3,4-dioxobutan-2-yl)amino)-3-cyclohexyl-1-oxopropan-2-yl)-5-chloro-1H-indole-2-carboxamide], the IC50 rises from 0.015 nM to 1190 nM (79000-fold).

Compared with CC(C)(c1cccc(Cl)c1)C(OC(=O)N[C@@H](CC1CCCCC1)C(=O)N[C@H](C=O)C[C@@H]1CCNC1=O)c1ccccc1Cl (stereo partly drawn) [Compound C160, 1-(2-chlorophenyl)-2-(3-chlorophenyl)-2-methylpropyl ((S)-3-cyclohexyl-1-oxo-1-(((S)-1-oxo-3-((S)-2-oxopyrrolidin-3-yl)propan-2-yl)amino)propan-2-yl) carbamate], CC(C)(c1cccc(Cl)c1)C(OC(=O)N[C@@H](CC1CCCCC1)C(=O)N[C@H](C=O)C[C@@H]1CCNC1=O)c1ccc(Cl)cc1 (stereo partly drawn) [Compound C143, 2-(3-Chlorophenyl)-1-(4-chlorophenyl)-2-methylpropyl ((S)-3-cyclohexyl-1-oxo-1-(((S)-1-oxo-3-((S)-2-oxopyrrolidin-3-yl)propan-2-yl)amino)propan-2-yl) carbamate] is 6.9-fold lower in IC50: 24.7 nM for the first, 3.6 nM for the second. The second is the more potent here.

First: CC(C)C[C@H](NC(=O)OC1CCCC1Cc1ccccc1)C(=O)N[C@H](C=O)C[C@@H]1CCNC1=O (stereo partly drawn) [Compound C43, 2-benzylcyclopentyl ((S)-4-methyl-1-oxo-1-(((S)-1-oxo-3-((S)-2-oxopyrrolidin-3-yl)propan-2-yl)amino)pentan-2-yl) carbamate]
Second: CC(C)C[C@H](NC(=O)OC1(Cc2ccccc2)CC1)C(=O)N[C@H](C=O)C[C@@H]1CCNC1=O [Compound C44, 1-Benzylcyclopropyl ((S)-4-methyl-1-oxo-1-(((S)-1-oxo-3-((S)-2-oxopyrrolidin-3-yl)propan-2-yl)amino)pentan-2-yl) carbamate]
The IC50 of the first is 5.9-fold lower: 56 nM for the first, 331 nM for the second. The first is the more potent here.

CCOP(=O)(OCC)C(O)[C@H](CCC(=O)N1CCOc2ccccc2C1)NC(=O)[C@H](CC1CCCCC1)NC(=O)OC1CCN(S(C)(=O)=O)CC1 (stereo partly drawn) [Compound C28, 1-(Methylsulfonyl) piperidin-4-yl((2S)-3-cyclohexyl-1-(((2S)-1-(diethoxyphosphoryl)-5-(2,3-dihydrobenzo[f][1,4]oxazepin-4(5H)-yl)-1-hydroxy-5-oxopentan-2-yl)amino)-1-oxopropan-2-yl)carbamate] and CCOP(=O)(OCC)C(O)[C@H](CCC(=O)N1CCOc2ccccc2C1)NC(=O)[C@H](CC1CCCCC1)NC(=O)N(C)Cc1cccc(Cl)c1 (stereo partly drawn) [Compound C31, Diethyl ((2S)-2-((S)-2-(3-(3-chlorobenzyl)-3-methylureido)-3-cyclohexylpropanamido)-5-(2,3-dihydrobenzo[f][1,4]oxazepin-4(5H)-yl)-1-hydroxy-5-oxopentyl)phosphonate] cannot be ordered by IC50: over 200000 nM for the first, over 200000 nM for the second.

Going from CC1(C)CC(CC(NC(=O)[C@H](CC2CCCCC2)NC(=O)c2cc3ccccc3[nH]2)C(=O)C(N)=O)C(=O)N1 (stereo partly drawn) [Compound C123, N-((2S)-1-((4-amino-1-(5,5-dimethyl-2-oxopyrrolidin-3-yl)-3,4-dioxobutan-2-yl)amino)-3-cyclohexyl-1-oxopropan-2-yl)-1H-indole-2-carboxamide] to O=C(N[C@@H](CC1CCCCC1)C(=O)N[C@@H](CC1CC2(CCCCC2)NC1=O)C(=O)C(=O)N1CCCC1)c1cc2ccccc2[nH]1 (stereo partly drawn) [Compound C171, N-((2S)-3-cyclohexyl-1-((3,4-dioxo-1-(2-oxo-1-azaspiro[4.5]decan-3-yl)-4-(pyrrolidin-1-yl)butan-2-yl)amino)-1-oxopropan-2-yl)-1H-indole-2-carboxamide], the IC50 rises from 294 nM to 11000 nM (37-fold).

Going from CN(Cc1cccc(Cl)c1)C(=O)N[C@@H](CC1CCCCC1)C(=O)N[C@H](C=O)CCC(=O)N1CCOc2ccccc2C1 [Compound C35, (S)-2-(3-(3-Chlorobenzyl)-3-methylureido)-3-cyclohexyl-N—((S)-5-(2,3-dihydrobenzo[f][1,4]oxazepin-4(5H)-yl)-1,5-dioxopentan-2-yl)propanamide] to CC(C)C[C@H](NC(=O)O[C@@H](c1cccc(F)c1)C(C)(C)c1cccc(Cl)c1)C(=O)N[C@H](C=O)C[C@@H]1CCNC1=O [Compound C268], the IC50 falls from 18900 nM to 20 nM (940-fold).

First: CCOP(=O)(OCC)C(O)C(CC1CC2(CCN(C(C)=O)CC2)NC1=O)NC(=O)[C@H](CC(C)C)NC(=O)OCC1CCC(F)(F)CC1 (stereo partly drawn) [Compound C95, (4,4-Difluorocyclohexyl)methyl ((2S)-1-((3-(8-acetyl-2-oxo-1,8-diazaspiro[4.5]decan-3-yl)-1-(diethoxyphosphoryl)-1-hydroxypropan-2-yl)amino)-4-methyl-1-oxopentan-2-yl)carbamate]
Second: CC(C)C[C@H](NC(=O)OC(C)(C)Cc1ccccc1)C(=O)N[C@H](C=O)C[C@@H]1CCNC1=O [Compound C46, 2-Methyl-1-phenylpropan-2-yl ((S)-4-methyl-1-oxo-1-(((S)-1-oxo-3-((S)-2-oxopyrrolidin-3-yl)propan-2-yl)amino)pentan-2-yl) carbamate]
The IC50 of the first is 5.1-fold higher: 7000 nM for the first, 1380 nM for the second.

CC(C)(COC(=O)N[C@H](C(=O)N[C@H](C=O)C[C@@H]1CCNC1=O)C(C)(C)C)c1cccc(Cl)c1 [Compound C103, 2-(3-Chlorophenyl)-2-methylpropyl ((S)-3,3-dimethyl-1-oxo-1-(((S)-1-oxo-3-((S)-2-oxopyrrolidin-3-yl)propan-2-yl)amino)butan-2-yl)carbamate] was tested, and the IC50 was 736 nM.

For CC(C)C[C@H](NC(=O)N(Cc1ccccc1)C1CCN(C(=O)OC(C)(C)C)CC1)C(=O)N[C@@H](C[C@@H]1CCNC1=O)C(O)S(=O)(=O)O (stereo partly drawn) [Compound C40, (2S)-2-((S)-2-(3-benzyl-3-(1-(tert-butoxycarbonyl)piperidin-4-yl)ureido)-4-methylpentanamido)-1-hydroxy-3-((S)-2-oxopyrrolidin-3-yl)propane-1-sulfonate], the IC50 was 173 nM and 221 nM.
